The results in this text go back to ChEMBL document CHEMBL1156873 (Bioorg Med Chem Lett, 2010).

Series [1] is described as follows: Half life in nude mouse microsomes. The format is ADME, Microsome.
The target of series [2] is Serine/threonine-protein kinase mTOR (Homo sapiens, UniProt P42345). Description: Inhibition of mTOR.
The subject of series [3] is LNCaP. As to the kind of experiment: Cytotoxicity against human LNCAP cells. The format is functional, cell-based.
The nature of series [4]: Half life in human microsomes. The format is ADME, Microsome.
In series [5] the test system is MDA-MB-361. As to the kind of experiment: Antitumor activity against human MDA-MB-361 cells xenografted in nude mouse assessed as inhibition of tumor growth at 20 mg/kg, po daily once for 5 days measured up to 17 days. The class given is functional, organism-based. On the set-up: dose 20 mg/kg. (In general: Xenograft models place foreign cells or tissue in a host animal.)

The subject of series [6] is Mus musculus. As to the kind of experiment: Toxicity in nude mouse assessed as body weight change at 20 mg/kg, po daily once for 5 days. The class given is organism-based. The note with it: in vivo, 120 h. On the set-up: dose 20 mg/kg, route oral.
The subject of series [7] is Mus musculus. Description: Inhibition of mTOR in nude mouse bearing human MDA-MB-361 cells assessed as reduction of phosphorylated S6K (T389) level at 25 mg/kg, iv after 8 hrs. The format is functional, organism-based. The arrangement: dose 25 mg/kg.
The subject of series [8] is Mus musculus. Description: Toxicity in nude mouse assessed as body weight change at 10 mg/kg, po daily once for 5 days. The format is organism-based. On the set-up: dose 10 mg/kg, route oral. The note with it: in vivo, 120 h.
In series [9] the test system is Mus musculus. As to the kind of experiment: Inhibition of mTOR in nude mouse bearing human MDA-MB-361 cells assessed as reduction of phosphorylated S6 (S240/244) level at 25 mg/kg, iv after 8 hrs. The class given is functional, organism-based. On the set-up: dose 25 mg/kg.
Series [10] has as its system Mus musculus. Description: Inhibition of mTOR in nude mouse bearing human MDA-MB-361 cells assessed as reduction of phosphorylated AKT (S473) level at 25 mg/kg, iv after 8 hrs. The class given is functional, organism-based. The arrangement: dose 25 mg/kg.
Series [11] relates to MDA-MB-361. Description: Antitumor activity against human MDA-MB-361 cells xenografted in nude mouse assessed as inhibition of tumor growth at 10 mg/kg, po daily once for 5 days measured up to 17 days. The class given is functional, organism-based. On the set-up: dose 10 mg/kg.

The source made the active and inactive calls. No cut-off for these calls is given here.

`CCn1ncc2c(N3CC4CCC(C3)O4)nc(-c3ccc(NC(=O)NC)cc3)nc21`: the half-life (usually the time in which the quantity being followed falls by half) in series [1] was above 30 min. In addition, the values for the IC50 in series [2] and in series [3] were 0.74 nM and 70 nM, respectively.
On to `O=C(Nc1ccc(-c2nc(N3CC4CCC(C3)O4)c3cnn(C4CCC5(CC4)OCCO5)c3n2)cc1)Nc1cccnc1`, for which the half-life in series [4] was 13 min; in series [1] it was above 30 min. Further, the IC50 – broadly, the point on the concentration scale where inhibition reaches its midpoint – in series [2] was 0.12 nM; in series [3] it was 1 nM.
On to `CNC(=O)Nc1ccc(-c2nc(N3CC4CCC(C3)O4)c3cnn([C@H]4CC[C@@H](O)CC4)c3n2)cc1`, for which the half-life in series [4] and in [1] was above 30 min throughout. Besides, the half-inhibitory concentration (IC50) in series [2] is 0.3 nM; in series [3] it was 20 nM.
For `CNC(=O)Nc1ccc(-c2nc(N3CC4CCC(C3)O4)c3cnn(C(C)C)c3n2)cc1`, the half-life in series [4] is 12 min; in series [1], above 30 min. For the same compound, the concentration for half-maximal inhibition (IC50) in series [2] turned out to be 0.12 nM; in series [3], 5 nM.
As to `CNC(=O)Nc1ccc(-c2nc(N3CC4CCC(C3)O4)c3cnn(C4CCC5(CC4)OCCO5)c3n2)cc1`, the half-life in series [4] was 26 min; in series [1] it was above 30 min. Besides, the outcome in series [5], in [7], in series [9], in [10] and in series [11] was Active. Moreover, the Activity result in [6] and in series [8] was “Non-toxic” throughout. This compound also had an IC50 in series [3] of 2 nM.
With `O=C(NCCF)Nc1ccc(-c2nc(N3CC4CCC(C3)O4)c3cnn(C4CCC5(CC4)OCCO5)c3n2)cc1`, the values for the half-life in series [4] and in series [1] were 16 min and above 30 min, respectively. Moreover, the IC50 in series [2] was determined as 0.22 nM; in [3], 1 nM.
In series [1], `CNC(=O)Nc1ccc(-c2nc(N3CC4CCC(C3)O4)c3cnn(CCN(C)C)c3n2)cc1` returned a half-life of 5 min. Moreover, the IC50 in [3] worked out at 400 nM.
`CNC(=O)Nc1ccc(-c2nc(N3CC4CCC(C3)O4)c3cnn(CCO)c3n2)cc1`: in series [3], the IC50 turned out to be 650 nM. That is a sub-micromolar value.
Take `CNC(=O)Nc1ccc(-c2nc(N3CC4CCC(C3)O4)c3cnn(C4CCN(C(=O)OC(C)C)CC4)c3n2)cc1`: in series [1], the half-life was determined as 21 min. For the same compound, the IC50 was 0.19 nM in [2] and 6 nM in series [3].
As to `CNC(=O)Nc1ccc(-c2nc(N3CC4CCC(C3)O4)c3cnn(C4CCC5(CC4)OCCCO5)c3n2)cc1`, the half-life in [4] and in series [1] was above 30 min in each case. The compound also gave a concentration for half-maximal inhibition (IC50) in series [3] of 8 nM.
For the compound `CNC(=O)Nc1ccc(-c2nc(N3CC4CCC(C3)O4)c3cnn(CC(F)(F)F)c3n2)cc1`, the half-life in series [4] was 5 min; in [1] it was above 30 min. Moreover, the concentration for half-maximal inhibition (IC50) in [3] stood at 38 nM.
As for `CNC(=O)Nc1ccc(-c2nc(N3CC4CCC(C3)O4)c3cnn([C@H]4CC[C@H](OC)CC4)c3n2)cc1`, the half-life is 15 min in series [4] and above 30 min in series [1]. Further, the figures for the IC50 in series [2] and in series [3] were 0.38 nM and 2 nM, respectively.
Consider `CNC(=O)Nc1ccc(-c2nc(N3CC4CCC(C3)O4)c3cnn(C4CCN(C(=O)OC(C)(C)C)CC4)c3n2)cc1`, for which, in series [1], the half-life was determined as 11 min. In addition, the IC50 amounted to 0.26 nM in series [2] and 27 nM in series [3].
Regarding `CNC(=O)Nc1ccc(-c2nc(N3CC4CCC(C3)O4)c3cnn(C4CCC(=O)CC4)c3n2)cc1`, the half-life in [4] turned out to be 10 min; in [1] it was 20 min. This compound had an IC50 in series [3] of 32 nM.
On to `O=C(Nc1ccc(-c2nc(N3CC4CCC(C3)O4)c3cnn(C4CCC5(CC4)OCCO5)c3n2)cc1)NC1CC1`, for which the half-life amounted to 9 min in series [4] and 25 min in series [1]. Moreover, half-maximal inhibition in series [3] (IC50) was put at 2 nM.
Regarding `O=C(Nc1ccncc1)Nc1ccc(-c2nc(N3CC4CCC(C3)O4)c3cnn(C4CCC5(CC4)OCCO5)c3n2)cc1`, the half-life in series [4] was 13 min; in series [1], above 30 min. Further, the IC50 in series [2] came to 0.12 nM; in series [3] it was 1 nM.
With `CCNC(=O)Nc1ccc(-c2nc(N3CC4CCC(C3)O4)c3cnn(C4CCC5(CC4)OCCO5)c3n2)cc1`, the figures for the half-life in series [4] and in series [1] were 10 min and 27 min, respectively. Also, the IC50 in [3] worked out at 1 nM.
In the case of `O=C(Nc1ccccc1)Nc1ccc(-c2nc(N3CC4CCC(C3)O4)c3cnn(C4CCC5(CC4)OCCO5)c3n2)cc1`, the half-life in [4] is 13 min; in [1], above 30 min. For the same compound, the IC50 in series [2] was found to be 0.16 nM; in series [3], 4 nM.
The compound `CNC(=O)Nc1ccc(-c2nc(N3CC4CCC(C3)O4)c3cnn(C4CCN(C(=O)OC)CC4)c3n2)cc1` showed a half-life in series [1] above 30 min. The IC50 in [3] amounted to 26 nM.
As for `CNC(=O)Nc1ccc(-c2nc(N3CC4CCC(C3)O4)c3cnn([C@H]4CC[C@@H](OC)CC4)c3n2)cc1`, the half-life in series [1] is 17 min. In series [3], this compound registered an IC50 of 1 nM.
As to `CNC(=O)Nc1ccc(-c2nc(N3CC4CCC(C3)O4)c3cnn([C@H]4CC[C@H](O)CC4)c3n2)cc1`, the half-life in [4] and in series [1] was above 30 min in each case. For the same compound, the IC50 is 0.24 nM in series [2] and 20 nM in series [3].
For `CNC(=O)Nc1ccc(-c2nc(N3CC4CCC(C3)O4)c3cnn(C4CCC(OC)(OC)CC4)c3n2)cc1`, the half-life in series [4] turned out to be 30 min; in series [1], 15 min. The IC50 in series [3] came out at 2 nM.
Regarding `CNC(=O)Nc1ccc(-c2nc(N3CC4CCC(C3)O4)c3cnn(C)c3n2)cc1`, in series [1], the half-life was above 30 min. Besides, the IC50 came out at 1.34 nM in [2] and 170 nM in [3].
